Measured values from paper PMC9667543, “Discovery of Nanomolar-Affinity Pharmacological Chaperones Stabilizing the Oncogenic p53 Mutant Y220C” (ACS Pharmacology & Translational Science, 2022).
Read-outs that look alike come from different tables or passages of the source.

Assays:
p53-Y220C [1] = molecular target: T1, p53-Y220C (Homo sapiens, UniProt P04637, M133L/N239Y/N268D/V203A/Y220C); assay: Binding affinity by isothermal titration calorimetry (ITC); conditions: for LE (kcal/mol/NHA): ligand efficiency; for fold reduction in binding affinity compared with 4: versus unsubstituted pyrrole reference 4
T1 construct: Stabilized p53-Y220C DBD (residues 94−312) was expressed and purified as previously described; 6xHis (N, cleaved yes); lipoyl domain (N, cleaved yes); TEV protease cleavage site (N, cleaved yes); made in house; host or cells: E. coli Rosetta2 plac I
Procedure: Isothermal Titration Calorimetry (ITC)
ITC experiments were conducted using a MicroCal iTC200 calorimeter. For forward titrations, the cell unit contained 25-50 μM protein in freshly dialyzed assay buffer (25 mM KPi, 150 mM NaCl, 1 mM TCEP, pH 7.2) with a final DMSO content of 5% (v/v), and the syringe contained 0.5-5 mM compound […]
the same buffer. Injection steps used were 2 µL (initial injection: 0.5 µL) at a rate of 2 µL/s with 120 s or 240 s spacing, and all experiments were performed at 25-30 °C. Data were analyzed using MicroCal PEAQ-ITC analysis software. […]

p53-Y220C [2] = molecular target: T1, p53-Y220C; assay: Thermal stabilization (ΔTm) by differential scanning fluorimetry (DSF); type: binding; conditions: 10× SYPRO Orange; for ΔTm at 200 µM: 8 μM protein; for ΔTm (°C) [L] = 200 μM: Table 1, 8 μM protein
Procedure: Differential Scanning Fluorimetry (DSF)
Protein thermal stabilization was determined using SYPRO orange (Life Technologies) as a dye that increases in fluorescence quantitatively upon binding to hydrophobic protein surfaces exposed upon thermal denaturation. Real-time melt analysis was recorded on a Bio-rad CFX Connect Real-time qPCR system. DSF measurements were performed using 8 μM protein and 10x SYPRO orange in assay buffer (25 mM KPi, 150 mM NaCl, 1 mM TCEP, pH 7.2) at a final DMSO concentration of 5% (v/v). ΔT m values were calculated as ΔT m = T m (protein + compound) − T m (protein). ΔT m values are reported as an average of three independent measurements. […]

p53-Y220C [3] = molecular target: T1, p53-Y220C; assay: Binding affinity by isothermal titration calorimetry (ITC); conditions: Table 2; ITC reverse titrations, 4–15 μM ligand, 100–147 μM protein
NUGC-3 (p53-Y220C) = test system: NUGC-3 (p53-Y220C); parameters: method as in PMID 29702446; conditions: at 10 μM; cited from earlier work
p53-Y220C [4] = molecular target: T1, p53-Y220C; conditions: cited from earlier work
[5] = test system: p53-Y220C cancer cell lines HUH-7, BXPC-3, NUGC-3; conditions: cited from earlier work
[6] = test system: p53 target genes PUMA, 9p21, BTG2, FAS, TNF, and TNFRSF10B; parameters: method as in PMID 29702446; conditions: qPCR; cited from earlier work
p53-Y220C [7] = molecular target: T1, p53-Y220C; conditions: cited from earlier work; for stabilization of p53-Y220C (DSF): in vitro
p53 = test system: p53; parameters: method as in PMID 31633398; conditions: in vitro; cited from earlier work

| SMILES | Kd (p53-Y220C [1]; Table 1, ITC, [prot] = 50 μM) | LE (kcal/mol/NHA) (p53-Y220C [1]; Table 1) | ΔTm at 200 µM (p53-Y220C [2]; Table 1, [L] = 200 μM) | melting point | also measured |
| --- | --- | --- | --- | --- | --- |
| O=C(O)c1cc(I)c(-n2ccc(F)c2)c(I)c1O [compound 21] | 15 µM | 0.37 kcal/mol/NHA | 1.9 °C | 270 to 271 °C (dec.) | – |
| O=C(O)c1cc(I)c(-n2ccc3ccccc32)c(I)c1O [compound 19] | – | – | -0.3 °C | 183 to 184 °C (dec.) | ΔTm (°C) [L] = 200 μM (p53-Y220C [2]): induced virtually no stabilization |
| CCN(CC)c1nc2c(C(=O)O)c(O)c(I)c(-n3ccc(Cl)c3)c2s1 [compound 89] | – | – | – | – | LE (kcal/mol/NHA) (p53-Y220C [1]; Table 2): 0.31 kcal/mol/NHA; fold weaker binding affinity compared with MB710 (2) (p53-Y220C [1]; versus parent 2): ca. 2 fold; Kd (p53-Y220C [3]): 1.9 µM; ΔTm at 200 µM (p53-Y220C [2]; Table 2, [L] = 200 μM): 2 °C |
| O=C(O)c1cc(I)c(OCC(F)(F)F)c(I)c1O [compound 24] | – | – | 0.3 °C | – | – |
| CCNC(=O)c1c(O)c(I)c(-n2cccc2)c2sc(N(CC)CC)nc12 [compound 3] | – | – | – | – | NUGC-3 viability (NUGC-3 (p53-Y220C)): < 10%; Kd (p53-Y220C [4]; literature value, ITC): 4 µM; selective cell viability reduction ([5]; HUH-7, BXPC-3, NUGC-3 versus NUGC-4, SW1088, WI38, HUH-7 p53-Y220C KO): induces selective cell viability reduction; transcription of p53 target genes [6]: enhanced and selective transcription of p53 target genes; stabilization of p53-Y220C (DSF) (p53-Y220C [7]): stabilize p53-Y220C in vitro in a concentration-dependent manner |
| O=C(O)c1cc(I)c(-n2ccc(Cl)c2)c(I)c1O [compound 20] | 38 µM | 0.33 kcal/mol/NHA | 1.5 °C | – | – |
| O=C(O)c1cc(I)c(-n2cccn2)c(I)c1O [compound 17] | – | – | 0.7 °C | 241 °C (dec.) | – |
| CCN(CC)c1nc2c(C(=O)O)c(O)c(I)c(-n3cccc3)c2s1 [compound 2, reference compound] | – | – | – | – | LE (kcal/mol/NHA) (p53-Y220C [1]; Table 2): 0.34 kcal/mol/NHA; Kd (p53-Y220C [3]): 1.2 µM; stabilization of p53-Y220C (DSF) (p53-Y220C [7]): stabilize p53-Y220C in vitro in a concentration-dependent manner; ΔTm at 200 µM (p53-Y220C [2]; Table 2, [L] = 200 μM): 2.3 °C |
| CN(C)Cc1ccc2c(c1)c1ccccc1n2CC(F)(F)F [compound 6] | – | – | – | – | Kd (p53-Y220C [4]; supplementary CSV, previously reported compounds, no reference printed in the file): 37 µM |
| O=C(O)c1cc(I)c(-n2ccc(C(F)(F)F)c2)c(I)c1O [compound 23] | 100 µM | 0.26 kcal/mol/NHA | 0.5 °C | – | fold reduction in binding affinity compared with 4 (p53-Y220C [1]): approximately 5 fold |
| CCn1c2ccc(CNC)cc2c2ccc(-c3cc(C)cs3)cc21 [compound 1] | – | – | – | – | Kd (p53-Y220C [4]; binding to the Y220C pocket): 2 µM; selective cell viability reduction ([5]; HUH-7 and NUGC-3 (p53-Y220C) versus HUH7-F1 (p53-Y220C KO) and NUGC-4 (p53-WT), narrow concentration range): induces selective cell viability reduction; thermal shift (ΔTm) to the protein melting temperature (p53-Y220C [7]; 250 μM [ligand]): over 3 °C; p53 aggregation (p53): reduces p53 aggregation in vitro |
| O=C(O)c1cc(I)c(-n2cc(F)c(F)c2)c(I)c1O [compound 22] | 25 µM | 0.33 kcal/mol/NHA | 1.9 °C | 217 to 218 °C (dec.) | – |
| CCN(CC)c1nc2c(C(=O)O)c(O)c(I)c(-n3ccc(F)c3)c2s1 [compound 87] | – | – | – | – | LE (kcal/mol/NHA) (p53-Y220C [1]; Table 2): 0.35 kcal/mol/NHA; fold improvement in affinity compared with parent 2 (p53-Y220C [1]; versus parent MB710 (2)): approximately 4 fold; Kd (p53-Y220C [3]): 0.32 µM; ΔTm at 200 µM (p53-Y220C [2]; Table 2, [L] = 200 μM): 2.7 °C |
| O=C(O)c1cc(I)c(-n2ccnc2)c(I)c1O [compound 18] | – | – | 1 °C | 238 °C (dec.) | – |
| O=C(O)c1cc(I)c(-n2cccc2)c(I)c1O [compound 4] | 22 µM | 0.37 kcal/mol/NHA | 1.8 °C | 199 to 200 °C (dec.) | – |

More lines, main results first:

| Kd (p53-Y220C [1]; Table 1, ITC, [prot] = 50 μM) | LE (kcal/mol/NHA) (p53-Y220C [1]; Table 1) | ΔTm at 200 µM (p53-Y220C [2]; Table 1, [L] = 200 μM) | melting point | SMILES | also measured |
| --- | --- | --- | --- | --- | --- |
| 100 µM | 0.34 kcal/mol/NHA | 1.1 °C | – | CCCOc1c(I)cc(C(=O)O)c(O)c1I [compound 64] | – |
| 200 µM | 0.28 kcal/mol/NHA | 1.5 °C | – | Cc1cccn1-c1c(I)cc(C(=O)O)c(O)c1I [compound 43] | – |
| – | – | – | 216 to 217 °C | CCN(CC)c1nc2c(C(=O)O)c(O)c(I)c(-n3cc(F)c(F)c3)c2s1 [compound 88] | LE (kcal/mol/NHA) (p53-Y220C [1]; Table 2): 0.34 kcal/mol/NHA; Kd (p53-Y220C [3]): 0.39 µM; ΔTm at 200 µM (p53-Y220C [2]; Table 2, [L] = 200 μM): 1.8 °C |
| 77 µM | 0.30 kcal/mol/NHA | 1.1 °C | 215 °C (dec.) | Cc1ccc(C)n1-c1c(I)cc(C(=O)O)c(O)c1I [compound 45] | fold reduction in binding affinity compared with 4 (p53-Y220C [1]): 3 fold |
| – | – | – | 235 to 236 °C (dec.) | CC(=O)c1ccn(-c2c(I)cc(C(=O)O)c(O)c2I)c1 [compound 46] | – |
| – | – | 0.5 °C | 182 to 183 °C (dec.) | O=C(O)c1cc(I)c(OCCC(F)(F)F)c(I)c1O [compound 65] | – |
| – | – | 0.3 °C | – | Cc1c(I)cc(C(=O)O)c(O)c1I [compound 74] | – |
| – | – | 0.5 °C | – | CCc1ccn(-c2c(I)cc(C(=O)O)c(O)c2I)c1 [compound 47] | ΔTm (°C) [L] = 200 μM (p53-Y220C [2]): induced virtually no stabilization |
| 26 µM | 0.45 kcal/mol/NHA | 1.5 °C | 188 to 189 °C (dec.) | CCc1c(I)cc(C(=O)O)c(O)c1I [compound 75] | – |
| 160 µM | 0.29 kcal/mol/NHA | 1.5 °C | – | Cc1ccn(-c2c(I)cc(C(=O)O)c(O)c2I)c1 [compound 44] | – |
| 40 µM | 0.40 kcal/mol/NHA | 0.9 °C | – | CCCc1c(I)cc(C(=O)O)c(O)c1I [compound 76] | – |
| 120 µM | 0.38 kcal/mol/NHA | 1.5 °C | 197 to 198 °C (dec.) | COc1c(I)cc(C(=O)O)c(O)c1I [compound 62] | – |
| 86 µM | 0.37 kcal/mol/NHA | 1.5 °C | 194 to 195 °C (dec.) | CCOc1c(I)cc(C(=O)O)c(O)c1I [compound 63] | – |
| – | – | 0.3 °C | 146 °C (dec.) | O=C(O)c1cc(I)c(N2CCCC2)c(I)c1O [compound 70] | Kd (μM) (p53-Y220C [1]; Table 1, ITC, [prot] = 50 μM): did not exhibit measurable binding nor thermal stabilization; ΔTm (°C) [L] = 200 μM (p53-Y220C [2]): did not exhibit measurable binding nor thermal stabilization |
| – | – | 1.5 °C | 147 °C (dec.) | CCNc1ccc(C(=O)O)c(O)c1I [compound 67] | – |
